Where a SMILES comes first, the peptide text is derived from it. Bridges are numbered along the chain shown (N, C = ends). [ ]: non-standard residue; d: D form. dOrn = NCCC[C@@H](N)C(=O)O
How the values were obtained:
K. pneumoniae C1559 = test: Ex vivo efficacy in human blood; assay type: cell-based, Klebsiella pneumoniae; conditions: K. pneumoniae C1559, 10^5 cfu/ml, 5×MIC of MKM, six hours, 37°C; three biological experiments
Procedure: Human blood was procured from BioIVT (New York, USA). […] CFUs were determined by serial dilution and cultivation on agar.

ribosome = test: Ribosome profiling (Ribo-seq)
[1] = system: 70S ribosome (50S subunit); test: Cryo-EM of MKM-stalled ribosome complexes; assay type: binding, E. coli; conditions: ermBL MKM-SRC, 50 μM MKM
Procedure: MKM-ribosome complexes were generated by in vitro translation reactions in the PURExpress In vitro Protein Synthesis Kit (NEB) as described by the manufacturer. Complex formation reactions were carried out on ermBL toeprint mRNA template (Supplementary Table 7) in a 75 μl of reaction in presence of 50 μM MKM. The reaction was incubated for 15 min at 37 °C. The reaction volume was then split: 69 μl were used for complex generation and 6 μl were further analyzed by toeprinting. Ribosome complexes were isolated by centrifugation in 900 μl of sucrose gradient buffer (containing 40% sucrose, 50 mM HEPES-KOH, pH 7.4, 100 mM KOAc, 25 mM Mg(OAc)2 and 6 mM 2-mercaptoethanol) for 3 h at 4 °C with 80,000 g in a Optima Max-XP Tabletop Ultracentrifuge with a TLA 120.2 rotor. […]
Cryo-EM grids were prepared by applying 3.5 μl of MKM-70S complexes onto freshly glow-discharged Quantifoil R3.5/1 grids (copper, 300 mesh, with an additional 3 nm carbon layer; Product: C3-C19nCu30–01). […]
Movies were captured at a nominal magnification of 105,000×, corresponding to a calibrated pixel size of 0.832 Å (0.416 Å in super-resolution mode, binned 2× via EPU). […] Each exposure lasted 1.95 seconds in nanoprobe mode, during which 35 frames were recorded at a dose rate of ~1.14 electrons per frame per Å^2, resulting in a total accumulated dose of approximately 40 electrons per Å^2 (~15 e^−/px/s over vacuum). […]

E. coli BW25113 = test: Time-dependent killing assay, E. coli; assay type: cell-based; conditions: E. coli BW25113, MHB, 5×MIC (160 μg/ml), 37°C, 0-24 h; mean of three biological replicates
Procedure: E. coli BW25113 and Klebsiella pneumoniae C1559 were grown overnight in 5 ml of cation-adjusted Mueller-Hinton Broth. The cultures were then inoculated into fresh medium to achieve an OD600 of 0.1, corresponding to a concentration of 10^8 CFU/ml. […] Samples were taken at 0 h, 3 h, 6 h, and 24 h post-incubation, plated on MHA plates, and incubated for 20–24 hours at 37°C. Colony counts were used to determine the log reduction in CFU/ml, comparing treated strains to untreated control samples.

For `C[C@@H](O)[C@@H]1NC(=O)[C@@H](CCCNC(=N)N)NC(=O)[C@@H](CCCNC(=N)N)NC(=O)[C@@H](CC(N)=O)NC(=O)[C@@H](NC(=O)[C@@H](Cc2ccccc2)NC(=O)[C@@H](CCCN)NC(=O)[C@H](N)CCCNC(=N)N)[C@@H](C)OC(=O)[C@H](Cc2c[nH]cn2)NC1=O` [MKM, manikomycin A] (H-[dR][dOrn][dF]T[dN][dR][dR]TH; ester 4-C), the “bacterial eradication in human blood” value (K. pneumoniae C1559) was “complete eradication”, the metagene ribosome occupancy (ribosome; E. coli BL21ΔtolC, 50 μg/ml (25×MIC), 2 min) was “increased ribosome occupancy at the early mRNA codons” and the “codon depletion at MKM-induced arrest sites” value (ribosome; E. coli BL21ΔtolC, 50 μg/ml (25×MIC), 2 min, pLogo) was “exclusion of Thr at the sites of MKM-induced arrest”. For the same molecule, the “codon enrichment at MKM-induced stalling sites” value (ribosome; E. coli BL21ΔtolC, 50 μg/ml (25×MIC), 2 min, pLogo, sites with ≥5-fold higher occupancy) was “enrichment of Pro codons in the P and A sites”, the “context specificity of action (summary)” value (ribosome; ribosome profiling and toeprinting, Pro, Leu, Thr codons) was “more efficiently inhibiting ribosomes translating Pro and Leu codons and exhibiting less effect on those translating Thr codons” and the second binding site [1] was “at the back of the 50S subunit”. The primary binding site ([1]; 2.4 Å focused refinement on 50S) was “located within the E site of the 50S subunit” and the time-kill effect (E. coli BW25113) was “bactericidal”.
